Converted amounts (≈) assume the structure as drawn. Like-named read-outs stand apart in the source and are kept apart here.
Assays:
[1] = system: A. baumannii 1403; assay: MIC assay, strain 1403; type: cell-based, Acinetobacter baumannii; conditions: Acinetobacter baumannii, strain 1403
Description: (§1) MIC and MBC assays were performed in this study as documented by us previously.^17,23,24,25 The A. baumannii strains used are detailed in Table 7.

[2] = system: A. baumannii 1646; assay: MIC assay, strain 1646; type: cell-based, Acinetobacter baumannii; conditions: Acinetobacter baumannii
Description: as §1

[3] = system: A. baumannii 1649; assay: MIC assay, strain 1649; type: cell-based, Acinetobacter baumannii; conditions: Acinetobacter baumannii, strain 1649
Description: as §1

[4] = system: A. baumannii 1650; assay: MIC assay, strain 1650; type: cell-based, Acinetobacter baumannii; conditions: Acinetobacter baumannii, strain 1650
Description: as §1

[5] = system: A. baumannii 1651; assay: MIC assay, strain 1651; type: cell-based, Acinetobacter baumannii; conditions: Acinetobacter baumannii, strain 1651
Description: as §1

[6] = system: A. baumannii 1652; assay: MIC assay, strain 1652; type: cell-based, Acinetobacter baumannii; conditions: Acinetobacter baumannii, strain 1652
Description: as §1

[7] = system: A. baumannii 1403; assay: minimal bactericidal concentration (MBC) assay, strain 1403; type: cell-based; conditions: Acinetobacter baumannii, Table 8, read-out: MBC90 1403
Description: (§2) Lead quinazolines 4, 5, 26, 29, 27, and 30 were selected to be further evaluated for antimicrobial effects. The first assay utilized was a minimal bactericidal concentration (MBC) assay, to assess whether leads compounds were bacteriostatic or bactericidal. The six lead agents were screened to identify their MBC90 towards each of the six A. baumannii isolates used in the SAR studies (Table 8), however for simplicity only the representative data for isolate 1646 is detailed below (Table 6). […] Further to this, we were able to obtain complete eradication of bacterial growth for these two compounds at 1 μM for 24 and 5 μM for 25.
as §1

[8] = system: A. baumannii 1646; assay: minimal bactericidal concentration (MBC) assay, strain 1646; type: cell-based, Acinetobacter baumannii
Description: as §2, §1

[9] = system: A. baumannii 1649; assay: minimal bactericidal concentration (MBC) assay, strain 1649; type: cell-based; conditions: Acinetobacter baumannii, Table 8, read-out: MBC90 1649
Description: as §2, §1

[10] = system: A. baumannii 1650; assay: minimal bactericidal concentration (MBC) assay, strain 1650; type: cell-based; conditions: Acinetobacter baumannii, Table 8, read-out: MBC90 1650
Description: as §2, §1

[11] = system: A. baumannii 1651; assay: minimal bactericidal concentration (MBC) assay, strain 1651; type: cell-based; conditions: Acinetobacter baumannii, Table 8, read-out: MBC90 1651
Description: as §2, §1

[12] = system: A. baumannii 1652; assay: minimal bactericidal concentration (MBC) assay, strain 1652; type: cell-based; conditions: Acinetobacter baumannii, Table 8, read-out: MBC90 1652
Description: as §2, §1

[13] = system: A. baumannii 1403 biofilm; assay: biofilm eradication determination assay, strain 1403; type: cell-based, Acinetobacter baumannii; conditions: 90% biofilm eradication, Table 8
Description: (§3) These assays were performed as described by us previously,^26,24 as follows. Each of the A. baumannii strains were grown overnight in Mueller Hinton Broth (MHB). The next day these were used to seed fresh MHB to an OD600 of 0.5, with 150 μL then added to the wells of a 96 well plate and grown for 24 hours at 37° C. After 24 hours, the planktonic bacteria were carefully removed and fresh MHB was added with increasing concentrations of lead quinazolines. After incubation at 37° C. for 24 hours, planktonic cells were removed and biofilms were washed three times with phosphate buffered saline (PBS). Biofilms were then resuspended in PBS and plated for cell viability on tryptic soy agar. Biofilm recovery was assessed compared to no drug controls, and determined as percent eradication. This was used to determine MBEC90 values (Minimal Biofilm Eradication Concentration), where the viability of cells within the biofilm was reduced by 90%.

[14] = system: A. baumannii 1646 biofilm; assay: biofilm eradication determination assay, strain 1646; type: cell-based, Acinetobacter baumannii; conditions: for MBEC90: Table 6, representative data for isolate 1646; for reduction in biofilm viability: at 50 μM; for reduction in biofilm viability / MBEC90 1646: strain 1646; for MBEC90 1646: 90% biofilm eradication, Table 8 and text
Description: as §3

[15] = system: A. baumannii 1649 biofilm; assay: biofilm eradication determination assay, strain 1649; type: cell-based, Acinetobacter baumannii; conditions: 90% biofilm eradication, Table 8
Description: as §3

[16] = system: A. baumannii 1650 biofilm; assay: biofilm eradication determination assay, strain 1650; type: cell-based, Acinetobacter baumannii; conditions: 90% biofilm eradication, Table 8
Description: as §3

[17] = system: A. baumannii 1651 biofilm; assay: biofilm eradication determination assay, strain 1651; type: cell-based, Acinetobacter baumannii; conditions: 90% biofilm eradication, Table 8
Description: as §3

[18] = system: A. baumannii 1652 biofilm; assay: biofilm eradication determination assay, strain 1652; type: cell-based, Acinetobacter baumannii; conditions: 90% biofilm eradication, Table 8
Description: as §3

[19] = system: A. baumannii strain 1403; type: cell-based, Acinetobacter baumannii; conditions: serial passage, 8 days, start 0.5× MIC
Description: An important attribute of novel antibiotics is the ability to fend off the development of resistance towards their effects. To assess this capacity, A. baumannii strains were incubated overnight with 0.5× MIC of each of the frontrunners. The next day cells were washed and used to inoculate fresh media that contained a two-fold increase in drug. This was repeated for a total of 8 days, alongside sulfamethoxazole (SMX) and trimethoprim (TMP) controls, both of which target the same pathway as our lead agents (FIG. 2).
In order to test potential resistance towards the quinazolines, a serial passage assay was performed alongside control compounds (Sulfamethoxazole and Trimethoprim), as described by us previously.^24 A. baumannii strain 1403 was grown overnight in LB media at 37° C. The next day cultures were diluted 1:100 in fresh media and seeded into a 96-well plate. Lead quinazolines or control agents were added to respective wells at half MIC concentrations. […] These were then grown overnight, and the procedure repeated for a total of eight days.

[20] = system: human HepG2 cells; type: cell-based
Description: Cytotoxicity assays were performed using human HepG2 cells (human liver epithelial with hepatocellular carcinoma), as described by us previously.^17,24 Cells were cultured in Dulbecco's modified eagle medium (DMEM), supplemented with 10% fetal bovine serum and 1% penicillin-streptomycin for 3 days at 37° C. and 5% CO2. Cells were then diluted to 1×10^5 ml^−1 using fresh DMEM and added to 96 well tissue culture plates at a volume of 100 μL. Plates were incubated for 24 hours at 37° C. and 5% CO2, allowing the cells to adhere to the plastic. […] Plates were then incubated for 48 hours at 37° C. and 5% CO2. After 48 hours the DMEM was removed and 100 μL of new media was added containing MTT (3-(4, 5-dimethylthiazol-2-yl)-2, 5-diphenyltetrazolium bromide), followed by incubation for four hours at 37° C. and 5% CO2. […] Lead compounds were solvated in 100% DMSO for these studies, which served as the negative control. LD50 values were determined for each compound by comparison to vehicle only controls.

[21] = system: A. baumannii; assay: MIC assay, A. baumannii isolates (strain not given); type: cell-based, Acinetobacter baumannii; conditions: Acinetobacter baumannii; most isolates besides the 1652 strain; read-out: MIC against most isolates
Description: as §1

[22] = lead quinazolines, Table 8, read-out: MIC 1403
[23] = Table 6, representative data for isolate 1646, read-out: MIC
[24] = strain 1646, lead quinazolines, Table 8, read-out: MIC 1646
[25] = lead quinazolines, Table 8, read-out: MIC 1649
[26] = lead quinazolines, Table 8, read-out: MIC 1650
[27] = lead quinazolines, Table 8, read-out: MIC 1651
[28] = lead quinazolines, Table 8, read-out: MIC 1652
[29] = Acinetobacter baumannii, 1646, strain 1646, Table 8 and text, read-out: MBC90 1646
[30] = Acinetobacter baumannii, Table 6, representative data for isolate 1646, read-out: MBC90
[31] = at 25 μM (highest concentration tested)
[32] = Tables 1, 3, 4, 5 and footnotes, read-out: 1403 MIC
[33] = strain 1646, Tables 1, 3, 4, 5 and footnotes, read-out: 1646 MIC
[34] = Tables 1, 3, 4, 5 and footnotes, read-out: 1649 MIC
[35] = Tables 1, 3, 4, 5 and footnotes, read-out: 1650 MIC
[36] = Tables 1, 3, 4, 5 and footnotes, read-out: 1651 MIC
[37] = Tables 1, 3, 4, 5 and footnotes, read-out: 1652 MIC

Compound | MIC [1, 22] [µM] | MIC [2, 23] [µM] | MIC [2, 24] [µM] | MIC [3, 25] [µM] | MIC [4, 26] [µM] | MIC [5, 27] [µM] | MIC [6, 28] [µM] | MBC [7] [µM] | MBC [8, 29] [µM] | MBC [8, 30] [µM] | MBC [9] [µM] | MBC [10] [µM] | MBC [11] [µM] | increase in MIC over the 8-day test period [19] [fold] | MIC [1, 32] [µM] | MIC [2, 33] [µM] | MIC [3, 34] [µM] | MIC [4, 35] [µM] | MIC [5, 36] [µM] | MIC [6, 37] [µM] | further results
CNc1nc(NCc2ccccc2)nc2ccc(Br)cc12 [Compound 4, N^2-Benzyl-6-bromo-N^4-methylquinazoline-2,4-diamine] | 25 (≈ 8.58 µg/mL) | 0.5 (≈ 0.172 µg/mL) | 0.5 (≈ 0.172 µg/mL) | 11 (≈ 3.78 µg/mL) | 12 (≈ 4.12 µg/mL) | 5 (≈ 1.72 µg/mL) | 20 (≈ 6.86 µg/mL) | 22 (≈ 7.55 µg/mL) | 0.81 (≈ 0.278 µg/mL) | 0.8 (≈ 0.275 µg/mL) | 4.7 (≈ 1.61 µg/mL) | 15 (≈ 5.15 µg/mL) | 2.1 (≈ 0.721 µg/mL) | 4 | – | – | – | – | – | – | MIC ([1]; Table 2, read-out: 1403 MIC): 50 µM (≈ 17.2 µg/mL); MIC ([2]; strain 1646, Table 2, read-out: 1646 MIC): 2 µM (≈ 0.686 µg/mL); MIC ([3]; Table 2, read-out: 1649 MIC): 12 µM (≈ 4.12 µg/mL); MIC ([4]; Table 2, read-out: 1650 MIC): 15 µM (≈ 5.15 µg/mL); MIC ([5]; Table 2, read-out: 1651 MIC): 8 µM (≈ 2.75 µg/mL); MIC ([6]; Table 2, read-out: 1652 MIC): 20 µM (≈ 6.86 µg/mL); MBC [12]: 9.7 µM (≈ 3.33 µg/mL); MBEC90 1403 [13]: 26 µM; MBEC90 [14]: 3.3 µM; reduction in biofilm viability [14]: 3.6 log; MBEC90 1646 [14]: 3.3 µM; MBEC90 1649 [15]: 44.33 µM; MBEC90 1650 [16]: 9.61 µM; MBEC90 1651 [17]: 37.34 µM; MBEC90 1652 [18]: >100 µM; HepG2 cell viability [20, 31]: 43%; LD50(HepG2) ([20]; human, 48 h): 23 µM
CNc1nc(NCc2ccccc2)nc2ccc(C3CCCCC3)cc12 [Compound 30, N^2-Benzyl-6-cyclohexyl-N^4-methylquinazoline-2,4-diamine] | 20 (≈ 6.93 µg/mL) | 2 (≈ 0.693 µg/mL) | 2 (≈ 0.693 µg/mL) | 15 (≈ 5.2 µg/mL) | 20 (≈ 6.93 µg/mL) | 20 (≈ 6.93 µg/mL) | 20 (≈ 6.93 µg/mL) | 32 (≈ 11.1 µg/mL) | 1.1 (≈ 0.381 µg/mL) | 1.1 (≈ 0.381 µg/mL) | 33 (≈ 11.4 µg/mL) | 22 (≈ 7.62 µg/mL) | 28 (≈ 9.7 µg/mL) | – | 2 (≈ 0.693 µg/mL) | 2 (≈ 0.693 µg/mL) | 2 (≈ 0.693 µg/mL) | 2 (≈ 0.693 µg/mL) | 2 (≈ 0.693 µg/mL) | 10 (≈ 3.46 µg/mL) | MBC [12]: 17 µM (≈ 5.89 µg/mL); MBEC90 1403 [13]: 21 µM; MBEC90 [14]: 41.2 µM; reduction in biofilm viability [14]: 4.2 log; MBEC90 1646 [14]: 41 µM; MBEC90 1649 [15]: 68 µM; MBEC90 1650 [16]: 46 µM; MBEC90 1651 [17]: 33 µM; MBEC90 1652 [18]: >100 µM; MIC [21]: 2 µM (≈ 0.693 µg/mL); HepG2 cell viability [20, 31]: 39%; LD50(HepG2) ([20]; human, 48 h): 11 µM
Cc1cc(NS(=O)(=O)c2ccc(N)cc2)no1 [SMX, Sulfamethoxazole, reference compound] | – | – | – | – | – | – | – | – | – | – | – | – | – | 128 | 138 (≈ 35 µg/mL) | 118 (≈ 29.9 µg/mL) | 118 (≈ 29.9 µg/mL) | 118 (≈ 29.9 µg/mL) | 118 (≈ 29.9 µg/mL) | 118 (≈ 29.9 µg/mL) | HepG2 cell viability ([20]; human, 48 h, 25 μM): 46%
COc1cc(Cc2cnc(N)nc2N)cc(OC)c1OC [TMP, trimethoprim, reference compound] | – | – | – | – | – | – | – | – | – | – | – | – | – | 64 | 103 (≈ 29.9 µg/mL) | 34 (≈ 9.87 µg/mL) | 517 (≈ 150 µg/mL) | 120 (≈ 34.8 µg/mL) | 103 (≈ 29.9 µg/mL) | 103 (≈ 29.9 µg/mL) | HepG2 cell viability ([20]; human, 48 h, 25 μM): 45%

From US10323007B1, “N2N N4-disubstituted quinazoline-2,4-diamines and uses thereof” (University of South Florida, priority 2016, dated 2019)
